Test results reported in patent US11441142B2, “FLS variant having increased activity” (KONKUK UNIVERSITY INDUSTRIAL COOPERATION CORPORATION, priority 2017, dated 2022).
Residue numbers refer to the chain shown, from its start. Names and notes keep the numbering of the source. Read-outs that look alike come from different tables or passages of the source.

Legend:
[1] = test system: Lactobacillus brevis DDH (diol dehydratase), wild type, SEQ ID NO: 18; settings: substrate 2,3-butanediol, coenzyme B12; cited from earlier work
[2] = molecular target: T1, Clostridium autoethanogenum BDH (2,3-butanediol dehydrogenase) variant BDH:S199A, SEQ ID NO: 16 (Clostridium autoethanogenum, UniProt A0ABM5NRF0, S199A); experiment: kinetic parameters of BDH:S199A; format: biochemical; settings: for kcat / kcat/Km: pH 7.5, room temperature
T1 sequence (A0ABM5NRF0 1-351 S199A): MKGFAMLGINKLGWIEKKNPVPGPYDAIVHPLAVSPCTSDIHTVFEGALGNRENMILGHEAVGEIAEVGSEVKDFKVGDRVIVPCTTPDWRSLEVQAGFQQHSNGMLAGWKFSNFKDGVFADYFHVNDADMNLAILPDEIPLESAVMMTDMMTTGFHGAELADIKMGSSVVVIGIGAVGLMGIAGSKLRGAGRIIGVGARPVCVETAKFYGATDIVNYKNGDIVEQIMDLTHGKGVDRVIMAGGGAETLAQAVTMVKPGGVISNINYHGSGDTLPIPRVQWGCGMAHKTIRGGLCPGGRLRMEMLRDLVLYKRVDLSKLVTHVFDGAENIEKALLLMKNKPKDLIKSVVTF
Description: (§1) The kinetic parameters of EtDH and EtDH:D46G were identified by reacting the EtDH and EtDH:D46G with a reaction mixture containing 100 mM glycine-NaOH buffer solution (pH 9.5), 5 mM Mg^2+, 3 mM NAD^+/NADP^+ and 0.5 to 100 mM ethanol at room temperature. The kinetic parameters of FLS and variants thereof were identified by reacting FLS and variants thereof with a reaction mixture containing 100 mM phosphate buffer solution (pH 8.0), 1 mM Mg^+, 0.1 mM TPP and 0.5 to 20 mM acetaldehyde at room temperature. The kinetic parameters of BDH and BDH:S199A were identified by reacting BDH and BDH:S199A with a reaction mixture containing 50 mM Tris-HCl buffer solution (pH 7.5), 0.2 mM NADPH, 1 mM DTT; 0.5 to 100 mM acetoin or 0.5 to 10 mM butanone at room temperature. The Km and kcat values were identified using nonlinear regression fitting of the Michaelis-Menten equation and the fitting were repeated three times.
(§2) In order to compare the catalytic efficiencies via measurement of kinetic parameters of cascade enzymes and variants thereof in accordance with the present disclosure, the following experiment was performed. Specifically, the kinetic parameters of EtDH and EtDH:D46G were identified by reacting EtDH and EtDH:D46G with a reaction mixture containing 100 mM glycine-NaOH buffer solution (pH 9.5), 5 mM Mg^2+, 3 mM NAD^+/NADP^+ and 0.5 to 100 mM ethanol at room temperature. The kinetic parameters of FLS and variants thereof were identified by reacting FLS and variants thereof with a reaction mixture containing 100 mM phosphate buffer solution (pH 8.0), 1 mM Mg^+, 0.1 mM TPP and 0.5 to 20 mM acetaldehyde at room temperature. The kinetic parameters of BDH and BDH:S199A were identified by reacting BDH and BDH:S199A with a reaction mixture containing 50 mM Tris-HCl buffer solution (pH 7.5), 0.2 mM NADPH, 1 mM DTT; and 0.5 to 100 mM acetoin or 0.5 to 10 mM butanone at room temperature. Km and kcat values as substrate affinity were identified using nonlinear regression fitting of the Michaelis-Menten equation and the fitting were repeated three times. The test results of DDH and NOX were compared with previous results [(S. Kwak, et al., Bioresource Technol., 2013, 135, 432), and (M. Kopke, et al., Appl. Environ. Microbiol., 2014, 80, 3394)].

[3] = molecular target: T2, Clostridium autoethanogenum BDH (2,3-butanediol dehydrogenase), wild type, SEQ ID NO: 14 (Clostridium autoethanogenum, UniProt A0ABM5NRF0); experiment: kinetic parameters of BDH; format: biochemical; settings: coenzyme NADH, pH 7.5, room temperature
T2 sequence (A0ABM5NRF0 1-351): T1 sequence (A0ABM5NRF0 1-351 S199A) with A199S

[4] = test system: Cupriavidus necator EtDH (ethanol dehydrogenase) variant EtDH:D46G, SEQ ID NO: 6; settings: pH 9.5, room temperature
Description: as §1, §2

[5] = test system: Cupriavidus necator EtDH (ethanol dehydrogenase), wild type, SEQ ID NO: 4; settings: substrate ethanol, pH 9.5, room temperature
Description: as §1, §2

[6] = test system: Lactobacillus rhamnosus NOX (NADH oxidase), SEQ ID NO: 2; settings: substrate O2, coenzyme NADH; cited from earlier work
[7] = substrate: CCC(C)=O; experiment: kinetic parameters of BDH; format: biochemical, Clostridium autoethanogenum; settings: other: substrate butanone, coenzyme NADPH (0.2 mM), pH 7.5, room temperature
[8] = substrate: CC(=O)C(C)O; experiment: kinetic parameters of BDH; format: biochemical, Clostridium autoethanogenum; settings: other: substrate acetoin, coenzyme NADPH (0.2 mM), pH 7.5, room temperature
[9] = substrate: CCC(C)=O; experiment: kinetic parameters of BDH:S199A; format: biochemical, Clostridium autoethanogenum; settings: other: substrate butanone, coenzyme NADPH (0.2 mM), pH 7.5, room temperature
[10] = substrate acetoin, coenzyme NADH
[11] = substrate acetoin, coenzyme NADPH (0.2 mM)
[12] = substrate butanone, coenzyme NADH
[13] = second line of EtDH:D46G, coenzyme printed NAD^+
[14] = substrate ethanol, coenzyme NAD^+ (3 mM)

In the case of `C[C@H](O)[C@@H](C)O` [2,3-butanediol], the Km [1] is given as 10400 µM, the kcat [1] is given as 35 s⁻¹ and the kcat/Km [1] is given as 3400 M⁻¹ s⁻¹.

`CC(=O)C(C)O` (stereo not shown) [Acetoin] gave a kcat [2, 10] of 0 s⁻¹, a kcat/Km [2, 10] of 0 M⁻¹ s⁻¹ and a kcat [2, 11] of 224.3 ± 9.72 s⁻¹. It also gave a kcat/Km [2, 11] of 19310 M⁻¹ s⁻¹, a kcat ([3]; substrate acetoin) of 0 s⁻¹ and a kcat/Km ([3]; substrate acetoin) of 0 M⁻¹ s⁻¹.

In the case of `CCC(C)=O` [Butanone], the kcat [2, 12] is reported as 0 s⁻¹, the kcat/Km [2, 12] is reported as 0 M⁻¹ s⁻¹ and the “catalytic efficiency compared to wild-type BDH” value ([2]; substrate butanone, coenzyme NADPH) is reported as “increases catalytic efficiency”. For the same molecule, the kcat ([3]; substrate butanone) was 0 s⁻¹ and the kcat/Km ([3]; substrate butanone) was 0 M⁻¹ s⁻¹.

In the case of `CCO` [Ethanol], the Km [4, 13] is reported as 600 ± 20 µM, the kcat [4, 13] is reported as 0.99 ± 0.03 s⁻¹ and the kcat/Km [4, 13] is reported as 1650 M⁻¹ s⁻¹. For the same molecule, the Km [4, 14] was 570 ± 30 µM, the kcat [4, 14] was 5.85 ± 0.08 s⁻¹ and the kcat/Km [4, 14] was 9970 M⁻¹ s⁻¹. It also gave a kcat ([5]; coenzyme NADP^+ (3 mM)) of 0 s⁻¹, a kcat/Km ([5]; coenzyme NADP^+ (3 mM)) of 0 M⁻¹ s⁻¹ and a Km ([5]; coenzyme NAD^+ (3 mM)) of 370 ± 50 µM. It also gave a kcat ([5]; coenzyme NAD^+ (3 mM)) of 6.28 ± 0.11 s⁻¹ and a kcat/Km ([5]; coenzyme NAD^+ (3 mM)) of 17090 M⁻¹ s⁻¹.

For `O=O` [O2], the kcat [6] is listed as 218.7 s⁻¹ and the kcat/Km [6] is listed as 3.77e+07 M⁻¹ s⁻¹.

B1: Clostridium autoethanogenum BDH (2,3-butanediol dehydrogenase), wild type, SEQ ID NO: 14 (Clostridium autoethanogenum DSM 10061) (protein)
chain: T1 sequence (A0ABM5NRF0 1-351 S199A) with A199S
B1 showed a Km [7] of 1940 ± 50 µM, a kcat [7] of 29.9 ± 1.02 s⁻¹ and a kcat/Km [7] of 15400 M⁻¹ s⁻¹. The Km [8] was 84560 ± 7960 µM.

B2: Clostridium autoethanogenum BDH (2,3-butanediol dehydrogenase) variant BDH:S199A, SEQ ID NO: 16 (Clostridium autoethanogenum DSM 10061; S199A) (protein)
chain: T1 sequence (A0ABM5NRF0 1-351 S199A)
With B2 the Km [9] was 1080 ± 90 µM, the kcat [9] was 40.8 ± 1.42 s⁻¹ and the kcat/Km [9] was 37800 M⁻¹ s⁻¹.
